# Source: patent publication US12491180B2, “Application of compound in treating pneumonia” (SHENZHEN OPTIMUM BIOLOGICAL TECHNOLOGY CO., LTD., priority 2019, dated 2025)
# Where two headings read alike, the source gives them in different places.
# Columns and labels:
# [1] = system: Acinetobacter baumannii 8476; assay: MIC, solid dilution method; type: cell-based
# Method: (§1) CRE Acinetobacter baumannii 8476, 6383, a total of 2 strains; CRE Serratia marcescens 14541, a total of 1 strain; all collected in the Department of Infectious Diseases, West China Hospital, Chengdu, Sichuan Province, and kept in our laboratory.
# (§2) The above-mentioned glycerol-preserved strains were taken out from the −80° C. refrigerator, streaked and inoculated on MHA plates, labeled, and cultured overnight in a 37° C. incubator.
# (§3) The inoculum was prepared directly from bacterial suspension, and several recovered colonies were picked and directly prepared into a bacterial suspension with a turbidity of No. 0.5 McFarland units in normal saline, and a 10-fold dilution was made during inoculation.
# (§4) 6 bottles of MHA culture medium 500 mL/bottle were prepared, and the pH was adjusted to 7.2-7.4, sterilized at 121° C. for 15 min, and the medium was placed in a 55° C. water bath to keep warm.
# (§5) Sterile blank petri dishes were taken, and marked with each FL drug/concentration according to 2-fold dilution, and 10 concentrations of each drug starting from 8 μg/mL were tested.
# (§6) […]; 20 mL was aspirated and added to a petri dish consistent with the mark, and then 20 mL of MHA culture medium was added to the rest of the drug-containing culture medium, mixed evenly, that is, the 2-fold diluted drug-containing culture medium; 20 mL was aspirated and added to the petri dish consistent with the mark, and then diluted to the 10th concentration and the […] respectively by repeating the above-mentioned steps, and then poured into the petri dish.
# (§7) 4 bacterial control petri dishes without drug were prepared at the same time as a control.
# (§8) The positioning needle and the inoculation needle were installed according to the order of placement of the colony on the inoculation plate. After inoculation, a bacterial solution circle was formed on the petri dish. After the bacterial solution was absorbed by the agar, the petri dish was placed in an incubator at 37° C. for overnight incubation (16-20 hours), and then taken out.
# (§9) The minimum inhibitory concentrations of the compounds against the CRE and CSE strains were determined by the solid dilution method, and the results are shown in Tables 3 and 4.
# [2] = system: Acinetobacter baumannii 6383; assay: MIC, solid dilution method; type: cell-based
# Method: as §1, §2, §3, §4, §5, §6, §7, §8, §9
# [3] = system: Serratia marcescens 14541; assay: MIC, solid dilution method; type: cell-based; settings: 14541
# Method: as §1, §2, §3, §4, §5, §6, §7, §8, §9
# [4] = system: Klebsiella pneumoniae 13249; assay: MIC, solid dilution method; type: cell-based
# Method: (§10) (2) Clinical isolated strains: CRE Klebsiella pneumoniae 5846, 11544, 12559, 13249 and CSE Klebsiella pneumoniae 8733, a total of 5 strains;
# as §2, §3, §4, §5, §6, §7, §8, §9
# [5] = system: Klebsiella pneumoniae 5846; assay: MIC, solid dilution method; type: cell-based
# Method: as §10, §2, §3, §4, §5, §6, §7, §8, §9
# [6] = system: Klebsiella pneumoniae 12559; assay: MIC, solid dilution method; type: cell-based
# Method: as §10, §2, §3, §4, §5, §6, §7, §8, §9
# [7] = system: Klebsiella pneumoniae 11544; assay: MIC, solid dilution method; type: cell-based
# Method: as §10, §2, §3, §4, §5, §6, §7, §8, §9
# [8] = system: Klebsiella pneumoniae 8733; assay: MIC, solid dilution method; type: cell-based
# Method: as §10, §2, §3, §4, §5, §6, §7, §8, §9
# [9] = system: Enterobacter aerogenes 8193; assay: MIC, solid dilution method; type: cell-based; settings: Klebsiella aerogenes
# Method: CRE Enterobacter aerogenes 8193, a total of 1 strain;
# as §2, §3, §4, §5, §6, §7, §8, §9
# Escherichia coli 13897 = assay: MIC, solid dilution method; type: cell-based
# Method: as §2, §3, §4, §5, §6, §7, §8, §9
# E. coli 11256 = assay: MIC, solid dilution method; type: cell-based; settings: Escherichia coli
# Method: as §2, §3, §4, §5, §6, §7, §8, §9
# Klebsiella oxytoca 12391 = assay: MIC, solid dilution method; type: cell-based
# Method: as §2, §3, §4, §5, §6, §7, §8, §9
# Klebsiella oxytoca 6777 = assay: MIC, solid dilution method; type: cell-based
# Method: as §2, §3, §4, §5, §6, §7, §8, §9
# Klebsiella oxytoca 14151 = assay: MIC, solid dilution method; type: cell-based
# Method: as §2, §3, §4, §5, §6, §7, §8, §9
# Klebsiella oxytoca 14153 = assay: MIC, solid dilution method; type: cell-based
# Method: as §2, §3, §4, §5, §6, §7, §8, §9
# Escherichia coli 14828 = assay: MIC, solid dilution method; type: cell-based
# Method: as §2, §3, §4, §5, §6, §7, §8, §9
# Escherichia coli 11119 = assay: MIC, solid dilution method; type: cell-based
# Method: as §2, §3, §4, §5, §6, §7, §8, §9
# E. ae 14186 = assay: MIC, solid dilution method; type: cell-based, Enterobacter aerogenes; settings: Klebsiella aerogenes, 14186
# Method: as §2, §3, §4, §5, §6, §7, §8, §9
# [10] = system: Enterobacter cloacae 14653; assay: MIC, solid dilution method; type: cell-based
# Method: as §2, §3, §5, §7, §8
# [11] = system: Enterobacter cloacae 11090; assay: MIC, solid dilution method; type: cell-based
# Method: as §2, §3, §5, §7, §8
# [12] = system: Enterobacter cloacae 11699; assay: MIC, solid dilution method; type: cell-based
# Method: as §2, §3, §5, §7, §8
# [13] = system: Escherichia coli BAA-2452; assay: MIC, solid dilution method; type: cell-based
# Method: (§11) (1) Standard strains: Escherichia coli BAA-2452, Escherichia coli ATCC25922, Klebsiella pneumoniae BAA-1705; all purchased from ATCC.
# as §2, §3, §4, §5, §6, §7, §8, §9
# [14] = system: Escherichia coli ATCC25922; assay: MIC, solid dilution method; type: cell-based
# Method: as §11, §2, §3, §4, §5, §6, §7, §8, §9
# [15] = system: Klebsiella pneumoniae BAA-1705; assay: MIC, solid dilution method; type: cell-based
# Method: as §11, §2, §3, §4, §5, §6, §7, §8, §9
# 16 clinical CRE strains = assay: MIC50, MIC90 and MIC range against 16 clinical CRE strains; type: cell-based
# Method: as §2, §3, §4, §5, §6, §7, §8, §9
# [16] = system: Citrobacter freundii 7646; assay: MIC, solid dilution method; type: cell-based
# Method: (§12) CRE Citrobacter freundii 9434, 9484 and CSE Citrobacter freundii 7646, a total of 3 strains;
# as §2, §3, §4, §5, §6, §7, §8, §9
# [17] = system: Citrobacter freundii 9434; assay: MIC, solid dilution method; type: cell-based; settings: 9434
# Method: as §12, §2, §3, §4, §5, §6, §7, §8, §9
# [18] = system: Citrobacter freundii 9484; assay: MIC, solid dilution method; type: cell-based
# Method: as §12, §2, §3, §4, §5, §6, §7, §8, §9
smiles,measurement,setting,value
CC1(C)[C@H](NC(=O)/C(=N\O[C@@H](COc2ccc3c(c2)CN(C(=N)N(CCN)CCN)C3)C(=O)O)c2csc(N)n2)C(=O)N1OS(=O)(=O)O [Compound 45],MIC,[1]; 8476,> 8 µg/mL
same,MIC,[2]; 6383,> 8 µg/mL
same,MIC,[3],> 8 µg/mL
same,MIC,[4]; 13249,> 8 µg/mL
same,MIC,[5]; 5846,1 µg/mL
same,MIC,[6]; 12559,0.5 µg/mL
same,MIC,[7]; 11544,> 8 µg/mL
same,MIC,[8]; 8733,0.5 µg/mL
same,MIC,[9]; 8193,4 µg/mL
same,MIC,Escherichia coli 13897; 13897,0.5 µg/mL
same,MIC,E. coli 11256; 11256,0.25 µg/mL
same,MIC,Klebsiella oxytoca 12391; 12391,1 µg/mL
same,MIC,Klebsiella oxytoca 6777; 6777,2 µg/mL
same,MIC,Klebsiella oxytoca 14151; 14151,2 µg/mL
same,MIC,Klebsiella oxytoca 14153; 14153,2 µg/mL
same,MIC,Escherichia coli 14828; 14828,2 µg/mL
same,MIC,Escherichia coli 11119; 11119,8 µg/mL
same,MIC,E. ae 14186,2 µg/mL
same,MIC,[10]; 14653,2 µg/mL
same,MIC,[11]; 11090,4 µg/mL
same,MIC,[12]; 11699,0.25 µg/mL
same,MIC,[13]; BAA2452,1 µg/mL
same,MIC,[14]; ATCC25922,0.125 µg/mL
same,MIC,[15]; BAA1705,2 µg/mL
same,MIC50,16 clinical CRE strains,4 µg/mL
same,MIC90,16 clinical CRE strains,> 8 µg/mL
same,MIC,[16]; 7646,1 µg/mL
same,MIC,[17],2 µg/mL
same,MIC,[18]; 9484,0.25 µg/mL
"C[C@@H](O)[C@H]1C(=O)N2C(C(=O)O)=C(S[C@@H]3CN[C@H](C(=O)N(C)C)C3)[C@H](C)[C@H]12 [Meropenem, reference compound]",MIC,"[1]; A.B 8476, CRE clinical isolate, MHA agar, 37° C., 16-20 hours, read-out: MIC",64 µg/mL
same,MIC,"[2]; A.B 6383, CRE clinical isolate, MHA agar, 37° C., 16-20 hours, read-out: MIC",64 µg/mL
same,MIC,[3],128 µg/mL
same,MIC,"[4]; K.p 13249, CRE clinical isolate, MHA agar, 37° C., 16-20 hours, read-out: MIC",64 µg/mL
same,MIC,"[5]; K.p 5846, CRE clinical isolate, MHA agar, 37° C., 16-20 hours, read-out: MIC",8 µg/mL
same,MIC,"[6]; K.p 12559, CRE clinical isolate, MHA agar, 37° C., 16-20 hours, read-out: MIC",4 µg/mL
same,MIC,"[7]; K.p 11544, CRE clinical isolate, MHA agar, 37° C., 16-20 hours, read-out: MIC",32 µg/mL
same,MIC,"[8]; K.p 8733, CSE clinical isolate, MHA agar, 37° C., 16-20 hours, read-out: MIC",0.03 µg/mL
same,MIC,"[9]; E. ae 8193, CRE clinical isolate, MHA agar, 37° C., 16-20 hours, read-out: MIC",16 µg/mL
same,MIC,"Escherichia coli 13897; E. coli 13897, CRE clinical isolate, MHA agar, 37° C., 16-20 hours, read-out: MIC",4 µg/mL
same,MIC,"E. coli 11256; E. coli 11256, MHA agar, 37° C., 16-20 hours, read-out: MIC",< 0.015 µg/mL
same,MIC,"Klebsiella oxytoca 12391; K. ox 12391, CRE clinical isolate, MHA agar, 37° C., 16-20 hours, read-out: MIC",2 µg/mL
same,MIC,"Klebsiella oxytoca 6777; K. ox 6777, CRE clinical isolate, MHA agar, 37° C., 16-20 hours, read-out: MIC",16 µg/mL
same,MIC,"Klebsiella oxytoca 14151; K. ox 14151, CRE clinical isolate, MHA agar, 37° C., 16-20 hours, read-out: MIC",16 µg/mL
same,MIC,"Klebsiella oxytoca 14153; K. ox 14153, CRE clinical isolate, MHA agar, 37° C., 16-20 hours, read-out: MIC",32 µg/mL
same,MIC,"Escherichia coli 14828; E. coli 14828, CRE clinical isolate, MHA agar, 37° C., 16-20 hours, read-out: MIC",8 µg/mL
same,MIC,"Escherichia coli 11119; E. coli 11119, CRE clinical isolate, MHA agar, 37° C., 16-20 hours, read-out: MIC",16 µg/mL
same,MIC,E. ae 14186,0.125 µg/mL
same,MIC,"[10]; E. cl 14653, CRE clinical isolate, MHA agar, 37° C., 16-20 hours, read-out: MIC",64 µg/mL
same,MIC,"[11]; E. cl 11090, CRE clinical isolate, MHA agar, 37° C., 16-20 hours, read-out: MIC",0.5 µg/mL
same,MIC,"[12]; E. cl 11699, CSE clinical isolate, MHA agar, 37° C., 16-20 hours, read-out: MIC",< 0.015 µg/mL
same,MIC,"[13]; BAA2452, E. coli BAA-2452, standard strain, MHA agar, 37° C., 16-20 hours, read-out: MIC",16 µg/mL
same,MIC,"[14]; E. coli ATCC25922, standard strain, MHA agar, 37° C., 16-20 hours, read-out: MIC",< 0.015 µg/mL
same,MIC,"[15]; BAA1705, K.p BAA-1705, standard strain, MHA agar, 37° C., 16-20 hours, read-out: MIC",16 µg/mL
same,MIC,"[16]; C.f 7646, CSE clinical isolate, MHA agar, 37° C., 16-20 hours, read-out: MIC",< 0.015 µg/mL
same,MIC,[17],> 128 µg/mL
same,MIC,"[18]; C.f 9484, CRE clinical isolate, MHA agar, 37° C., 16-20 hours, read-out: MIC",0.06 µg/mL
